The target in the experiment is H3N2 E119V (A/Moscow/10/99 background, E119V mutation in the neuraminidase gene). The format is cell-based, influenza A virus. Conditions: read-out: EC50 H3N2 E119V.

The structures appear in SMILES notation.

Experimental findings from PMC8696196 (RSC Advances, 2021) are described below.

On to `CCC(CC)O[C@@H]1C=C(C(=O)O)C[C@H](n2nncc2-c2cccc(N)c2)[C@H]1NC(C)=O` [Compound 2j, (3R,4R,5S)-4-Acetamido-5-[5-(3-aminophenyl)-1H-1,2,3-triazol-1-yl]-3-(pentan-3-yloxy)cyclohex-1-ene-1-carboxylic acid], for which the EC50 is greater than 100 µM. Consider `CCC(CC)O[C@@H]1C=C(C(=O)O)C[C@H](N)[C@H]1NC(C)=O` [OSC, oseltamivir carboxylate, reference compound], for which the concentration for a half-maximal effect (EC50) is greater than 100 µM.

As a reminder, the EC50 is the midpoint of the concentration-response curve.
